The source of these data is patent publication US20250346643A1, “TROPOMYOSIN KINASE RECEPTOR (TRK) LIGANDS AS THERAPEUTICS TO SUPPORT LIVER REGENERATION” (Vanderbilt University, priority 2024, published 2025).

For the test, the system named is HSC-depleted mice (liver). Briefly: Treatment of HSC-depleted mice with recombinant NTF3. In kind it is in vivo, mouse. The method, then: T cell isolation and adoptive transfer. CD8+ T cells were isolated from spleen and lymph nodes (brachial, inguinal, axillar, submandibular, superficial cervical and mesenteric) of Jedi and controls. Spleens and lymph nodes were collected in ice cold T cell media (RPMI [Gibco® 11875-093] supplemented by 10% FBS, 2 mM L-glutamine [Thermo Fisher Scientific, Waltham, MA; 25030-081], 1% MEM nonessential amino acids [Thermo Fisher Scientific, Waltham, MA; 11140050] and 1 mM sodium pyruvate [Thermo Fisher Scientific, Waltham, MA; 11360-070]). Spleen and lymph nodes were mechanically homogenized and filtered through a 70 μm cell strainer (Falcon®). The cell suspension was centrifuged for 10 min at 4° C., 300 g. Red blood cell (RBC) lysis was performed with RBC buffer (Thermo Fisher Scientific, Waltham, MA; A10492). Cells were then washed with T cell media, filtered through a 70 μm cell strainer and centrifuged for 10 min at 4° C., 300 g. The cell pellet was then resuspended in flow buffer (PBS, pH 7.4, 2 mM EDTA, 0.05% BSA) and CD8+ T cells enriched using the mouse CD8+ T cell isolation kit (STEMCELL technologies, Vancouver, Canada; 19853A) according to the manufacturer's instructions. Enriched CD8+ T cells were centrifuged for 10 min at 4° C., 300 g, and resuspended in PBS. Mice with less than 25 g body weight were injected with up to 12 million Jedi T cells and mice greater than 25 g body weight were injected by tail vein injection with 18 million Jedi T cells. Control mice were injected with either T cells from H-2K^d mice or with vehicle only. Mice were not injected with lentiviral GFP particles as previously described (Agudo et al., Nat Biotechnol. 2015; 33(12): 1287-1292; Agudo et al., 2018; 48(2): 271-285.e5) to avoid lentiviral GFP-expression of other cells such as hepatocytes.
Treatment with recombinant NTF3. Four months old mice were injected via tail vein for 4 consecutive days with recombinant NTF3 (STEMCELL technology, Vancouver, Canada; cat. 78074, lots 1000070683, 1000077434) diluted in sterile 0.9% saline (0.9% NaCl) or vehicle only. Mice were weighed daily and recombinant NTF3 given at 20 ng/g body weight or 100 ng/g body weight, respectively. Lyophilized NTF3 was solubilized in 0.1% BSA/PBS (bovine serum albumin, Sigma-Aldrich, St. Louis, MO; A3059) and stored at −80° C. until use.
Immunohistochemistry. For immunohistochemistry, formalin-fixed paraffin embedded sections were cut at 4 μm thickness and slides incubated at 65° C. for 30 min. Slides were deparaffinized in Histo-Clear® (National Diagnostics, Charlotte, NC; HS2001GLL) and rehydrated by an ethanol gradient. Heat antigen retrieval was performed in 10 mM sodium citrate (pH 6.0) in a pressure cooker (Cuisinart®, CPC-600C), 20 min at high-pressure, natural pressure release for 30 min, and cooled at room temperature (i.e., about 20° C. to about 22° C.) for 30 min. Endogenous peroxidase quenching was performed with 1.5% hydrogen peroxide (Sigma-Aldrich, St. Louis, MO; H1009) for 20 min, and slides washed twice in phosphate buffered saline (PBS) twice. Blocking was performed for 30 min with Protein Block, Serum-free (Agilent, Santa Clara, CA; X090930-2). The primary antibody (TABLE 1) was diluted in antibody diluent (Agilent, Santa Clara, CA; S080983-2) and applied to the slides in a wet chamber overnight at 4° C. After 2 washes in PBS, slides were incubated with the appropriate secondary antibody (TABLE 1) for 30 min followed by two washes in PBS. […] The same reveal time was then used on all experimental slides. Slides were stained with hematoxylin (Sigma-Aldrich, St. Louis, MO; GHS332) for 30 sec, washed gently in lukewarm tap water for 5 min, and washed twice in distilled water, followed by two washes in phosphate buffered saline (PBS, pH 7.4). Slides were washed in increasing ethanol/water gradients, followed by three washes in Histo-Clear®. […]

Consider “NTF3: neurotrophin-3, recombinant protein; HSC-derived hepatocyte mitogen, ligand of TRKA, TRKB, TRKC”, for which the “IGFBP2 expression in hepatocytes” value (HSC-ablated mice, NTF3) was “only increased CCND1 but not IGFBP2 expression”. Also, under “HSC-depleted mice, NTF3 20 ng/g or 100 ng/g body weight, tail vein, 4 consecutive days (FIG. 10C)”, the liver-to-body weight ratio entry is on record as “dose-dependently increased”. The “liver-to-body weight ratio, higher dose group” value (HSC-depleted mice, NTF3 100 ng/g body weight, 4 consecutive days) is given as “significant increase”. Moreover, the “number of CCND1+HNF4a+ nuclei (multiplex immunohistochemistry)” value (HSC-depleted mice, NTF3 20 or 100 ng/g (FIG. 10E-F)) was “dose-dependently increased”. Moreover, the “nuclear CCND1 in hepatocytes in the midlobular region (staining)” value (HSC-depleted mice, NTF3 vs vehicle (FIG. 10D)) is listed as “increased nuclear CCND1”. For the same substance, the “Ki67+ hepatocytes” value (HSC-depleted mice, NTF3 vs vehicle (FIG. 10G-H)) is “increase”. Besides, the “PCNA in whole liver lysates (Western blotting)” value (HSC-depleted mice, NTF3 vs vehicle (FIG. 10I, 11B)) is reported as “increased”. Where the note is “HSC-depleted mice, NTF3 vs vehicle (FIG. 10I, 11C)”, the “CCND1 in whole liver lysates (Western blotting)” value was “increased”.
